Laboratory results: US5552382A (priority 1994, dated 1996)
In brackets after ≈: the same amount, converted by molar mass.

Columns and labels:
[1] = 30 minutes in an autoclave; cited from earlier work
HIV = conditions: cited from earlier work; for Dose protecting against / abrogating HIV infection in vitro: literature figures, equivalent of the % or μM value
MT-4 lymphocytes = conditions: MT-4 cells, 3 days continuous exposure; approximate log10 concentration
IIIB strain of HIV = assay: microbe, parasite or virus in culture; type: cell-based
Protocol: The following test procedure was employed.
In a classical virology assay aimed at testing the antiviral activity of a drug, the virus is added in the presence of a drug to target cells for the determined period of inoculation time, e.g., 1 hour, and then nonadsorbed virus is washed away and inoculated cells are exposed again to a fresh drug. After several days, a period corresponding to the replication cycle of the virus, the dose-effect of the drug is tested by measuring the quantity of newly-synthesized virus in the culture supernates of inoculated cells. But this strategy is not truly representative of the in vivo situation. It is clear that in a real-life situation the virus is not "flushed" from a human body prior to drug administration. […] In the present assay, virus, drug and cells were left without washing in the culture until tested for virus production 3 days later. This period of time presents one full cycle of HIV replication, Dimitrov et al., J. Virol. 67:2182-90, 1993. It is believed that this type of approach represents more closely and simulates the situation which exists in vivo.
p24 ELISA. Reduction of productive infection was evaluated by a commercial ELISA kit for viral core gag p24 product according to the manufacturer's instructions (Coulter, Hialeah, Fla.) as follows. Detergent-lysed samples of viral culture medium that were incubated in wells (96-well format), precoated with anti-p24 antibody, were screened for gag antigen by adding biotin-labeled anti-p24 antibody followed by streptavidin-peroxidase conjugate. The amount of captured p24 was measured by comparing the optical density (450 nm) of peroxidase substrate with supplied standards containing known amounts of p24. The lower limit of reliable sensitivity of this kit is 7.8 pg/ml.

[2] = MT-4 cells, HIV IIIB, 3 days, p24 ELISA, approximate log10 concentration

Compound	Retention of biological activity after autoclaving [1]	Dose protecting against / abrogating HIV infection in vitro (HIV) [µg/mL]	Dose at which the protective effect was generally observed in vitro (HIV; literature review of in vitro investigations) [%]	CC100 (cytotoxicity) (MT-4 lymphocytes) [µg]	Dose giving complete protection against HIV infection (IIIB strain of HIV; MT-4 cells, HIV IIIB) [µg/mL]	IC50 (50% inhibition of HIV infection) (IIIB strain of HIV; [2]) [ng]	IC100 (100% inhibition of HIV infection) (IIIB strain of HIV; [2]) [µg]	Cytopathic effect (membrane ballooning, syncytia) (IIIB strain of HIV; wells where viral replication was completely inhibited)	Concentration reported to abrogate HIV infection (HIV; literature in vitro studies) [µM]	IC50 (IIIB strain of HIV; Human immunodeficiency virus 1, MT4, 72 h, MT-4 cells, HIV IIIB, 3 days, p24 ELISA, approximate log10 concentration, read-out: IC50 (50% inhibition of HIV infection)) [µg/mL]
gramicidin S	retains its biological activity	–	–	–	–	–	–	–	–	–
nonoxynol-9	–	50	0.05	~10	10	~10	~10	–	–	–
gramicidin	–	–	–	–	–	–	~0.01	No signs of cytophatic effect were observed	–	–
Cc1cc2c(C(C)C)c(O)c(O)c(C=O)c2c(O)c1-c1c(C)cc2c(C(C)C)c(O)c(O)c(C=O)c2c1O [Gossypol, gossypol]	–	50	–	~10	10	–	~10	–	100	~1 (≈ 1.93 µM)
